Entries after “also recorded” stand apart in the source; their conditions may differ.
How the values were obtained:
[1] = tested on: LRP-deficient (PEA13) cells; test: Cellular internalization and degradation of 125I-labeled ligands by LRP-deficient mouse fibroblasts; assay type: cell-based
Protocol: (§1) Wells containing 2×10^5 LRP-expressing (MEF) or LRP-deficient (PEA13) cells were incubated with various concentrations (0.37-10 nM) of ^125I-APPs770 (Panels A and B) or 125I-APPs695 (Panels C and D) for 10 h at 37° C. in the absence of competitor (●) or in the presence of either 1 μM RAP (∘), or 100 μg/ml heparin (□). The cellular degradation of ^125I-labeled APPs770 by LRP-expressing MEF cells is shown in panel A and by LRP-deficient PEA13 cells in panel B. The cellular degradation of ^125I-APPs695 by LRP-expressing cells is depicted in panel C and by LRP-deficient cells in panel D. Plotted values represent means of duplicate determinations. Inset to panel B, autoradiogram of ^125I-labeled APPs770 (lane 1) and APPs695 (lane 2). The migration position of molecular mass standards are indicated on the right in kDa.
Wells containing 2×10^5 LRP-expressing (●) or LRP-deficient (∘) mouse fibroblasts were incubated with ^125I-LDL (8 μg/ml) or ^125I-α2M* (1.4 nM) for selected time intervals. […]
Mouse fibroblasts (2×10^5 cells per well) were incubated for selected times with ^125I-APPs770 (1 nM) in the absence of competitor (●) or in the presence of either 1 μM RAP (∘), or 100 μg/ml heparin (□). The amount of radioactivity internalized and degraded was determined at the indicated time intervals. […]

[2] = tested on: LRP-expressing (MEF) cells; test: Cellular internalization and degradation of 125I-labeled ligands by LRP-expressing mouse fibroblasts; assay type: cell-based
Protocol: as §1
Wells containing 2×10^5 LRP-expressing (●) or LRP-deficient (∘) mouse fibroblasts were incubated with ^125I-LDL (8 μg/ml) or ^125I-α2M* (1.4 nM) for selected time intervals. […] Shown are the amounts of ^125I-LDL internalized (panel A) and degraded (panel B), ^125I-α2M* internalized (panel C) and degraded (panel D). The plotted values represent means of duplicate determinations.
Mouse fibroblasts (2×10^5 cells per well) were incubated for selected times with ^125I-APPs770 (1 nM) in the absence of competitor (●) or in the presence of either 1 μM RAP (∘), or 100 μg/ml heparin (□). The amount of radioactivity internalized and degraded was determined at the indicated time intervals. […] The plotted values are means of duplicate determinations.
Mouse fibroblasts (2×10^5 cells/well) were incubated for 18 h at 37° C. with ^125I-APPs770 (10 nM) in the absence of competitor or in the presence of either heparin (100 μg/ml), chloroquine (0.1 mM), RAP (1 μM), affinity purified anti-LRP IgG (100 μg/ml), or control IgG against the cytoplasmic domain of LRP (100 μg/ml). Panels show the amount of ^125I-APPs770 degraded by mouse fibroblasts expressing LRP (A) or ones deficient in LRP expression (B). The data shown are means of duplicate determinations±S. E.
Wells containing 2×10^5 LRP-expressing (MEF) or LRP-deficient (PEA13) cells were incubated with ^125I-APPs770 (5 nM) or ^125I-APPs770:FIXa (3 nM) for 18 h at 37° C. in the absence of competitor or in the presence of 1 μM RAP. The amount of ^125I-labeled APPs770 or ^125I-APPs770:Factor IXa degraded by LRP-expressing MEF cells is shown in panel A and that by LRP-deficient PEA13 cells in panel B. Plotted values represent means of duplicate determinations.
Mouse fibroblasts (2×10^5) were incubated for 18 h at 37° C. with ^125I-APP/PN-2 (8.8 nM) in the absence of competitor or in the presence of either RAP (1 μM)), 10 μg/ml apoE3/βVLDL, 10 μg/ml apoE4/βVLDL, or 10 μg/ml βVLDL. […]

LRP = LRP (Homo sapiens, UniProt Q07954); test: ELISA of LRP binding to APPs770 captured on zinc-coated wells; settings: LRP 25 nM, RAP 0.2-450 nM
LRP, sequence (Q07954 20-3943 limits assumed): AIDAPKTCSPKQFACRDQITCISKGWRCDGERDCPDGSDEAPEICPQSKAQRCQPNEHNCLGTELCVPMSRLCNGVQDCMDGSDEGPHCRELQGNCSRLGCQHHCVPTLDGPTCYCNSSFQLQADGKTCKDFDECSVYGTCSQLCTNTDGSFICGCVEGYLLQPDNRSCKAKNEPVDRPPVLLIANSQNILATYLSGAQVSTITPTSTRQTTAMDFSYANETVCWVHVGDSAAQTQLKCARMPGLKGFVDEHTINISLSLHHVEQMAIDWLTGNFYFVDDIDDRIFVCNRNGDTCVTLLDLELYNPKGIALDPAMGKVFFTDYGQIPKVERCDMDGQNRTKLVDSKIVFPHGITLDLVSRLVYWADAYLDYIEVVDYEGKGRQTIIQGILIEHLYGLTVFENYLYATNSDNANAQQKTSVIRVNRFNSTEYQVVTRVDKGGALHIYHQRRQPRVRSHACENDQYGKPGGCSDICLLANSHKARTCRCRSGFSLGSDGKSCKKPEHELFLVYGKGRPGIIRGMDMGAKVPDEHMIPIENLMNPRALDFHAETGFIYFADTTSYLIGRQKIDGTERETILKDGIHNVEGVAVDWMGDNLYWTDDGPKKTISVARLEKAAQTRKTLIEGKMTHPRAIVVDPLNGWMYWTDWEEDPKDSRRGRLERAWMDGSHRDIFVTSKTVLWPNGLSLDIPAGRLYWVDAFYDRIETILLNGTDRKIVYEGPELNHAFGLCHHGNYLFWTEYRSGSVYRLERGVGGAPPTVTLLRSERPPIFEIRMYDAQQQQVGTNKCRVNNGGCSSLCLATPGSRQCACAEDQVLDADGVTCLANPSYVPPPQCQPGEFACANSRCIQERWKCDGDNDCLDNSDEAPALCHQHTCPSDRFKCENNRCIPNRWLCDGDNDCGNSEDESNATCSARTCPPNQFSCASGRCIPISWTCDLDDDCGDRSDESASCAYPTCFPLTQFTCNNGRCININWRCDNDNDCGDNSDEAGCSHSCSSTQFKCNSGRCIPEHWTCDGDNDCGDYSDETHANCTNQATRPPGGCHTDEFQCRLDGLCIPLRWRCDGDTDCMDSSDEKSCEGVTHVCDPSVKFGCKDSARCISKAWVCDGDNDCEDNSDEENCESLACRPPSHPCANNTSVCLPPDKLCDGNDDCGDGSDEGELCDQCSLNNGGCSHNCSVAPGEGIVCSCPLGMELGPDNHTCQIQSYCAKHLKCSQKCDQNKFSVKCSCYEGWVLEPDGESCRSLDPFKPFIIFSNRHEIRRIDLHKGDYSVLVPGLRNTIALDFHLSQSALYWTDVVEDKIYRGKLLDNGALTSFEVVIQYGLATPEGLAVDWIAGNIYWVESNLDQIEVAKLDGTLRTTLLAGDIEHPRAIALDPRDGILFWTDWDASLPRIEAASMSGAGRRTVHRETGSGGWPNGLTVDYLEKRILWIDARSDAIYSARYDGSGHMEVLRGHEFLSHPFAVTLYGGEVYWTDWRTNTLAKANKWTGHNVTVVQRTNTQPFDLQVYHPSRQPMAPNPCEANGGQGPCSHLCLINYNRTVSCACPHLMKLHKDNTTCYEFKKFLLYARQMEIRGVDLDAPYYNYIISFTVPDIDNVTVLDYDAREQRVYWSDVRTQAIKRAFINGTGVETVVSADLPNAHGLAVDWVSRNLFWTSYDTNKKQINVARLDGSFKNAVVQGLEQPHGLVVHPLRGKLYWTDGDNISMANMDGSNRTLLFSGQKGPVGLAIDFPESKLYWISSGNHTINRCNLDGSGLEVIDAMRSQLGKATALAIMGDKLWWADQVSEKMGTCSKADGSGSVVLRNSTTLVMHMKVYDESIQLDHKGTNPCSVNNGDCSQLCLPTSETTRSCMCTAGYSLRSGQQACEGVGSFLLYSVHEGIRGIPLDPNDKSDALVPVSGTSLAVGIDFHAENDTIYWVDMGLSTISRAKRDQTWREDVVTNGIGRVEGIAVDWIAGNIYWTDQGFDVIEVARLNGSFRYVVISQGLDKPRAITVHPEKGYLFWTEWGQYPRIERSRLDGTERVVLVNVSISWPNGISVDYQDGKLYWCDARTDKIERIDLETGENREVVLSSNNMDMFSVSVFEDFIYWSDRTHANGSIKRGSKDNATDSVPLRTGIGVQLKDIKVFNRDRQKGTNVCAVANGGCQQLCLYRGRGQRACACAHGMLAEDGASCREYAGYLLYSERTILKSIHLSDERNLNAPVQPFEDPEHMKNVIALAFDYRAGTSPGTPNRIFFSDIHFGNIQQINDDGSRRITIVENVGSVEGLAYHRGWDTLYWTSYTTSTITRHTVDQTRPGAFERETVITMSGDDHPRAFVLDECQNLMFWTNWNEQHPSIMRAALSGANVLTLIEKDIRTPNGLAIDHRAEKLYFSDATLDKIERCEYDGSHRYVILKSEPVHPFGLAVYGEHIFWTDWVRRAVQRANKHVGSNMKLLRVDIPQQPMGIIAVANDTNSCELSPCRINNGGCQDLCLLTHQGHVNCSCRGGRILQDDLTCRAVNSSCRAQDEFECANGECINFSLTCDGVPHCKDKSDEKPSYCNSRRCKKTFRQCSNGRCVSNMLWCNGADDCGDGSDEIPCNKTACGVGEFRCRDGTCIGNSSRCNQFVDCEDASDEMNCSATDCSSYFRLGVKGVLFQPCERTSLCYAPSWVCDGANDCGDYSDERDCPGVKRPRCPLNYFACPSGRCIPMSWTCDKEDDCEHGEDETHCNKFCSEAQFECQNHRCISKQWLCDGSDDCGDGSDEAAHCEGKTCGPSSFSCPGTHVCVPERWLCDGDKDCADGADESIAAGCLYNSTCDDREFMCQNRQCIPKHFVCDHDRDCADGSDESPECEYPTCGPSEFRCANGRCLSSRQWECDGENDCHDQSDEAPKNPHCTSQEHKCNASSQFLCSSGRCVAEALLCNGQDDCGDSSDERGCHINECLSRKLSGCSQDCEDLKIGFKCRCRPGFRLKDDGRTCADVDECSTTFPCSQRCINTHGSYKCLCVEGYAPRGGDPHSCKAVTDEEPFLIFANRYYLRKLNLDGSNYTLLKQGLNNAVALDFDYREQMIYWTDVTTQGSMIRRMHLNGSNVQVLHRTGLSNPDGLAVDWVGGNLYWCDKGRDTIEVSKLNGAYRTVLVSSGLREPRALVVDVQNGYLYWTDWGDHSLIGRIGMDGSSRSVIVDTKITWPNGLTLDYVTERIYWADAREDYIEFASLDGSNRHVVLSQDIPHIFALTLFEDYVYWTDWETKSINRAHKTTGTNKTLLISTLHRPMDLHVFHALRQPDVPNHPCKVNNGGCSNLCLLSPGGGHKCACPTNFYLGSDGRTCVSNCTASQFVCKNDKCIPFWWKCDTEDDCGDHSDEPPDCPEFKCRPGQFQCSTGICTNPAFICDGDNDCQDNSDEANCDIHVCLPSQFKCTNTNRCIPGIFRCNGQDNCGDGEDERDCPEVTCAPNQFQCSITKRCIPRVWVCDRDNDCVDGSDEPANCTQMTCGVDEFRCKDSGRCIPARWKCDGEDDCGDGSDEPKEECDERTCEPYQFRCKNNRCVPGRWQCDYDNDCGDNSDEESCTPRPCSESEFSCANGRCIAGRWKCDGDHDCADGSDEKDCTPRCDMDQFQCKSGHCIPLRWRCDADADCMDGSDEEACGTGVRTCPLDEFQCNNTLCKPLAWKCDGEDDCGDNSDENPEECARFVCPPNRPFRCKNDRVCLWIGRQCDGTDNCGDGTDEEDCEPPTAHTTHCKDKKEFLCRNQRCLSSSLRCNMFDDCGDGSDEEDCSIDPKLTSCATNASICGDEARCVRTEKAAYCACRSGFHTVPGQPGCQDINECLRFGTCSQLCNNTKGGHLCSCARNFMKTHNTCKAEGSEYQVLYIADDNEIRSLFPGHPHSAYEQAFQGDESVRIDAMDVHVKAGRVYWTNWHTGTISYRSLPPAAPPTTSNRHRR
LRP, sequence (Q07954 3944-4544 partner limits assumed): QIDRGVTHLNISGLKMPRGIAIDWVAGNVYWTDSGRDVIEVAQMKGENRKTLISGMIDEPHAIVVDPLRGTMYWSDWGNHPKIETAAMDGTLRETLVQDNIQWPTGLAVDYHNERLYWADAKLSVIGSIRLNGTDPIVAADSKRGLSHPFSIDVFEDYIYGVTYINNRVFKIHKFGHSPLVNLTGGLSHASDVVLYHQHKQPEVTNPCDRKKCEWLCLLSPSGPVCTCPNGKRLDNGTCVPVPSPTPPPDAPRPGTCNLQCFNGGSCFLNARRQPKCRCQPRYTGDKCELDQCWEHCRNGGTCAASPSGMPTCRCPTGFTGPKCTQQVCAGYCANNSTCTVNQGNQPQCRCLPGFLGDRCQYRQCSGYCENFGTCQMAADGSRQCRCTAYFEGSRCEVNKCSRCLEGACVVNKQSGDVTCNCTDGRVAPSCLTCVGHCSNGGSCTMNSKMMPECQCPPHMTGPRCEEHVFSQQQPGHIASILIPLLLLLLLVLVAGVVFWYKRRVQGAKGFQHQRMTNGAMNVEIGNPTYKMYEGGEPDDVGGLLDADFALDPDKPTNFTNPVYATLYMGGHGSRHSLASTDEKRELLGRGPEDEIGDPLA
Protocol: In panel A, zinc-coated wells (∘) or zinc-coated wells incubated with APPs770 (●) were incubated with the APPs770 monoclonal antibody 7H5. In panel B, increasing concentrations of LRP (0.14-300 nM) were incubated for 18 h at 4° C. with zinc-coated wells (∘) or zinc-coated wells with captured APPs770 (●). Panel C, LRP (25 nM) was incubated with zinc-coated wells (∘) or zinc-coated wells with captured APPs770 (●) in the presence of increasing concentrations of RAP (0.2-450 nM). Bound receptor was detected with the monoclonal LRP antibody 8G1. In the absence of LRP there was no binding of 8G1 IgG to APPs770-coated wells. Plotted values represent means of duplicate determinations.

Molecule: heparin
- inhibition of internalization of APP (125I-APPs770) ([1]; 125I-APPs770 1 nM, heparin 100 μg/ml): inhibition of internalization of APP
- inhibition of internalization of APP (125I-APPs770) ([2]; LRP-containing fibroblasts, 125I-APPs770 1 nM, heparin 100 μg/ml): inhibition of internalization of APP

Molecule: RAP: 39 kDa receptor associated protein that binds members of the LDL receptor family and blocks their ligand binding capacity
- inhibition of 125I-APPs770 degradation by apoE isoforms/βVLDL or RAP ([2]; 18 h at 37° C., 125I-APP/PN-2 8.8 nM, 10 μg/ml apoE/βVLDL or RAP 1 μM, F(4,15)=21.65, p=0.0001, p<0.05 vs βVLDL alone, RAP p<0.001): statistically significant
- inhibition of catabolism/degradation of APP (125I-APPs770) by added competitor ([2]; LRP-containing fibroblasts, RAP 1 μM, anti-LRP IgG 100 μg/ml): inhibition of catabolism of APP; also recorded: inhibition of degradation
- inhibition of APP binding to LRP (LRP): inhibition of APP binding

B1: α2-macroglobulin: 125I-labeled α2-macroglobulin, LRP ligand control (protein, UniProt P01023 24-1474, looked up)
Alpha-2-macroglobulin: SVSGKPQYMVLVPSLLHTETTEKGCVLLSYLNETVTVSASLESVRGNRSLFTDLEAENDVLHCVAFAVPKSSSNEEVMFLTVQVKGPTQEFKKRTTVMVKNEDSLVFVQTDKSIYKPGQTVKFRVVSMDENFHPLNELIPLVYIQDPKGNRIAQWQSFQLEGGLKQFSFPLSSEPFQGSYKVVVQKKSGGRTEHPFTVEEFVLPKFEVQVTVPKIITILEEEMNVSVCGLYTYGKPVPGHVTVSICRKYSDASDCHGEDSQAFCEKFSGQLNSHGCFYQQVKTKVFQLKRKEYEMKLHTEAQIQEEGTVVELTGRQSSEITRTITKLSFVKVDSHFRQGIPFFGQVRLVDGKGVPIPNKVIFIRGNEANYYSNATTDEHGLVQFSINTTNVMGTSLTVRVNYKDRSPCYGYQWVSEEHEEAHHTAYLVFSPSKSFVHLEPMSHELPCGHTQTVQAHYILNGGTLLGLKKLSFYYLIMAKGGIVRTGTHGLLVKQEDMKGHFSISIPVKSDIAPVARLLIYAVLPTGDVIGDSAKYDVENCLANKVDLSFSPSQSLPASHAHLRVTAAPQSVCALRAVDQSVLLMKPDAELSASSVYNLLPEKDLTGFPGPLNDQDNEDCINRHNVYINGITYTPVSSTNEKDMYSFLEDMGLKAFTNSKIRKPKMCPQLQQYEMHGPEGLRVGFYESDVMGRGHARLVHVEEPHTETVRKYFPETWIWDLVVVNSAGVAEVGVTVPDTITEWKAGAFCLSEDAGLGISSTASLRAFQPFFVELTMPYSVIRGEAFTLKATVLNYLPKCIRVSVQLEASPAFLAVPVEKEQAPHCICANGRQTVSWAVTPKSLGNVNFTVSAEALESQELCGTEVPSVPEHGRKDTVIKPLLVEPEGLEKETTFNSLLCPSGGEVSEELSLKLPPNVVEESARASVSVLGDILGSAMQNTQNLLQMPYGCGEQNMVLFAPNIYVLDYLNETQQLTPEIKSKAIGYLNTGYQRQLNYKHYDGSYSTFGERYGRNQGNTWLTAFVLKTFAQARAYIFIDEAHITQALIWLSQRQKDNGCFRSSGSLLNNAIKGGVEDEVTLSAYITIALLEIPLTVTHPVVRNALFCLESAWKTAQEGDHGSHVYTKALLAYAFALAGNQDKRKEVLKSLNEEAVKKDNSVHWERPQKPKAPVGHFYEPQAPSAEVEMTSYVLLAYLTAQPAPTSEDLTSATNIVKWITKQQNAQGGFSSTQDTVVALHALSKYGAATFTRTGKAAQVTIQSSGTFSSKFQVDNNNRLLLQQVSLPELPGEYSMKVTGEGCVYLQTSLKYNILPEKEEFPFALGVQTLPQTCDEPKAHTSFQISLSVSYTGSRSASNMAIVDVKMVSGFIPLKPTVKMLERSNHVSRTEVSSNHVLIYLDKVSNQTLSLFFTVLQDVPVRDLKPAIVKVYDYYETDEFAIAEYNAPCSKDLGNA
modifications: 125I label
notes: 125I-labeled α2-macroglobulin, LRP ligand control
- catabolism (internalization and degradation) of 125I-labeled ligand by cells ([1]; 37° C., no competitor): lack of both internalization and degradation
- catabolism (internalization and degradation) of 125I-labeled ligand by cells ([2]; LRP-containing fibroblasts, 37° C., no competitor): internalization and degradation
